pIC50: −log10 of the molar value. “Also recorded” adds a separate entry of the source. Where two headings read alike, the source gives them in different places.
Key:
PKC isozymes = settings: cited from earlier work
protein kinase C alpha = protein kinase C alpha (Homo sapiens, UniProt P17252); experiment: PKC Enzyme assay, alpha isozyme; format: biochemical; settings: PKC alpha; 30 μM ATP, 30° C., 10 minutes; read-out: IC50 α
protein kinase C beta-1 = protein kinase C beta-1 (Homo sapiens, UniProt P05771); experiment: PKC Enzyme assay, beta I isozyme; format: biochemical; settings: PKC beta-1; 30 μM ATP, 30° C., 10 minutes; read-out: IC50 β1
protein kinase C beta-2 = protein kinase C beta-2 (Homo sapiens, UniProt P05771); experiment: PKC Enzyme assay, beta II isozyme; format: biochemical; settings: PKC beta-2; 30 μM ATP, 30° C., 10 minutes; read-out: IC50 β2
protein kinase C gamma = protein kinase C gamma (Homo sapiens, UniProt P05129); experiment: PKC Enzyme assay, gamma isozyme; format: biochemical; settings: PKC gamma; 30 μM ATP, 30° C., 10 minutes; read-out: IC50 γ
protein kinase C delta = protein kinase C delta (Homo sapiens, UniProt Q05655); experiment: biochemical; settings: PKC delta; 30 μM ATP, 30° C., 10 minutes; read-out: IC50 δ
protein kinase C epsilon = molecular target: T1, protein kinase C epsilon (Homo sapiens, UniProt Q02156); experiment: PKC Enzyme assay, epsilon isozyme; format: biochemical; settings: PKC epsilon; 30 μM ATP, 30° C., 10 minutes; read-out: IC50 ε
T1 sequence (Q02156 1-737): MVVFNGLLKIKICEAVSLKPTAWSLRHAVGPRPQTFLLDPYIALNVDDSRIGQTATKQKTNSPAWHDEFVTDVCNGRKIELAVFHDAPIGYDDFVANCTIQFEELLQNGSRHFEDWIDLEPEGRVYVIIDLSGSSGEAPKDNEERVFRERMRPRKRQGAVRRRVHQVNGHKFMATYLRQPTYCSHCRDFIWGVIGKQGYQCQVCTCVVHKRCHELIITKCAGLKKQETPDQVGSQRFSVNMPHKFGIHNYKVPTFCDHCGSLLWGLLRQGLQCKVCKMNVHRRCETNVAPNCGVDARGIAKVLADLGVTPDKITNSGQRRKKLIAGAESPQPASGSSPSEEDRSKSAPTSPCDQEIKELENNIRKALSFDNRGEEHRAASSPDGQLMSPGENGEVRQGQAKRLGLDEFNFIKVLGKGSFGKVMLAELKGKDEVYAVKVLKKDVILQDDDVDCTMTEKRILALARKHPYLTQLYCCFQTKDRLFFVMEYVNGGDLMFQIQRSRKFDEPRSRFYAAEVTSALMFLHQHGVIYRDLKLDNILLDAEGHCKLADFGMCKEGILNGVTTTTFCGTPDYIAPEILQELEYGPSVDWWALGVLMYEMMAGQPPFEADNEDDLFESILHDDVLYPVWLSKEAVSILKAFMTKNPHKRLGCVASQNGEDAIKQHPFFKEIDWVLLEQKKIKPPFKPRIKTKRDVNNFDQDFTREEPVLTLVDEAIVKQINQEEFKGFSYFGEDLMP

protein kinase C zeta = molecular target: T2, protein kinase C zeta (Homo sapiens, UniProt Q05513); experiment: PKC Enzyme assay, zeta isozyme; format: biochemical; settings: PKC zeta; 30 μM ATP, 30° C., 10 minutes; read-out: IC50 ζ
T2 sequence (Q05513 1-592): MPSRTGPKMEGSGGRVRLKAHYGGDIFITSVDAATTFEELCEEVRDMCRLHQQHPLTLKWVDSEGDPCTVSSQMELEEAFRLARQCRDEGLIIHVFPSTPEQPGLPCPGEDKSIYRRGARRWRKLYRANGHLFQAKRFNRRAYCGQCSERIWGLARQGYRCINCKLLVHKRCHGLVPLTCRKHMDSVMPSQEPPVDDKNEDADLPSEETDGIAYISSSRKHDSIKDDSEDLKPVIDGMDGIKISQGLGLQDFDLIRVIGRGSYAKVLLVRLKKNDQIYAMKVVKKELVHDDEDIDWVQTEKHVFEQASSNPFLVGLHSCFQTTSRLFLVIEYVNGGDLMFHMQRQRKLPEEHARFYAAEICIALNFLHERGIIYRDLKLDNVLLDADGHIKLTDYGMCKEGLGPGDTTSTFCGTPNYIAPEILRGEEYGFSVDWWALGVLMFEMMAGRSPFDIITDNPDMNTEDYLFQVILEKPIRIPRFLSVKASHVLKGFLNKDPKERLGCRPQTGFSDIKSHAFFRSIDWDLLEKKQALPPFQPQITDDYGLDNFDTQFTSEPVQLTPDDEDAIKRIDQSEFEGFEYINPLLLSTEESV

protein kinase C eta = protein kinase C eta (Homo sapiens, UniProt P24723); experiment: PKC Enzyme assay, eta isozyme; format: biochemical; settings: PKC eta; 30 μM ATP, 30° C., 10 minutes; read-out: IC50 η
protein kinase C eta, sequence (P24723 whole entry): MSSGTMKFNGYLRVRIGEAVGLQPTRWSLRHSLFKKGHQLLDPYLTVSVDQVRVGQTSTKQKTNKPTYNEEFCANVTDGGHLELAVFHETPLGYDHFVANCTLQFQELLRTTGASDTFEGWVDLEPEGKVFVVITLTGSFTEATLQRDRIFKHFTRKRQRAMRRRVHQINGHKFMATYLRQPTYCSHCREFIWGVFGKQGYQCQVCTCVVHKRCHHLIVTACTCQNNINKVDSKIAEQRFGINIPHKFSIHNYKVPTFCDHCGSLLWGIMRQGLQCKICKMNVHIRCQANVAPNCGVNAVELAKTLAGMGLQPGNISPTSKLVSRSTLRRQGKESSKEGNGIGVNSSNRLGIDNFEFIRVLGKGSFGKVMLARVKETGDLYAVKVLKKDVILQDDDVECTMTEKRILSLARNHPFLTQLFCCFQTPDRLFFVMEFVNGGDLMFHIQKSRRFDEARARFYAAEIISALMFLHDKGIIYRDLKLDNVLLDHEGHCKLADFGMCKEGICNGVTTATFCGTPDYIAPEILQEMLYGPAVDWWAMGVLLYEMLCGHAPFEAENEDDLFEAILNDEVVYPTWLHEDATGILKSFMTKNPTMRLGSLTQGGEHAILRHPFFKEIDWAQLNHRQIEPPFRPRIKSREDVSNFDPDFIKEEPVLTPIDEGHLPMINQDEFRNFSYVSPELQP

protein kinase C delta, sequence (Q05655 whole entry): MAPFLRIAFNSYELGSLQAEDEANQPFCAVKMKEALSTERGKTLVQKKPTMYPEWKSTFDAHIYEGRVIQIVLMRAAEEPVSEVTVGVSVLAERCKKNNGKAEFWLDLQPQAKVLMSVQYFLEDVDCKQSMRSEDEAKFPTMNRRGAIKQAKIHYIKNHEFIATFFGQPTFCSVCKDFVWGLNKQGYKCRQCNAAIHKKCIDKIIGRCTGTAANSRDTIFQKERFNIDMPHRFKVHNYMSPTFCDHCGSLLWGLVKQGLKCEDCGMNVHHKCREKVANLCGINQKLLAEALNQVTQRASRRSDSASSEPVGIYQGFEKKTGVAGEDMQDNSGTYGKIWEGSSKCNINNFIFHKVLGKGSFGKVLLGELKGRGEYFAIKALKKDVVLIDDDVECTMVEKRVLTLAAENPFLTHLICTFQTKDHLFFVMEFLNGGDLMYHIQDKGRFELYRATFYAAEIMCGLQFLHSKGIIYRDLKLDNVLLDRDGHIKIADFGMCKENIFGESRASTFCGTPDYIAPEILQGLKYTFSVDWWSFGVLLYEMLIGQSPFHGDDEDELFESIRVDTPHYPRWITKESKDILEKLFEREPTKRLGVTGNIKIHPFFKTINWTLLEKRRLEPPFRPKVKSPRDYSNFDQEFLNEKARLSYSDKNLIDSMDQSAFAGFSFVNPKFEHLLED
protein kinase C beta-2, sequence (P05771 1-673 isoform P05771-2): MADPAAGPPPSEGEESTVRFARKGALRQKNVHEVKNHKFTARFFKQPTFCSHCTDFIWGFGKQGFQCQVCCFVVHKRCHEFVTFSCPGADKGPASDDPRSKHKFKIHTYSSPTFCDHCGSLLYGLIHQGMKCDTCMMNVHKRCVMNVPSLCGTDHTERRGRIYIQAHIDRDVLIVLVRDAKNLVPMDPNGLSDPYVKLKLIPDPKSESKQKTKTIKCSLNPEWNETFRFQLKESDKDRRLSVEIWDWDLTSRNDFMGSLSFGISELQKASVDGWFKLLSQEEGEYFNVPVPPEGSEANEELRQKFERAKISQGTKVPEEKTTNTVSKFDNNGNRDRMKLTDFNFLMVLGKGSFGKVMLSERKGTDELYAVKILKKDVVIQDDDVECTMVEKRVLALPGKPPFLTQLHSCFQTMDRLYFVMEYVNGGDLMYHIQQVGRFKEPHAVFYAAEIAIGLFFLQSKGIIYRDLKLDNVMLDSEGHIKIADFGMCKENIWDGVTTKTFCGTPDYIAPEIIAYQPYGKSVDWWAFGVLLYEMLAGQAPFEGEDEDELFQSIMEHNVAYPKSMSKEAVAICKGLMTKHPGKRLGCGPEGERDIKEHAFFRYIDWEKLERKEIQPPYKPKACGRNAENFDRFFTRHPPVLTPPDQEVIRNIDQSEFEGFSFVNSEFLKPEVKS
protein kinase C beta-1, sequence (P05771 whole entry): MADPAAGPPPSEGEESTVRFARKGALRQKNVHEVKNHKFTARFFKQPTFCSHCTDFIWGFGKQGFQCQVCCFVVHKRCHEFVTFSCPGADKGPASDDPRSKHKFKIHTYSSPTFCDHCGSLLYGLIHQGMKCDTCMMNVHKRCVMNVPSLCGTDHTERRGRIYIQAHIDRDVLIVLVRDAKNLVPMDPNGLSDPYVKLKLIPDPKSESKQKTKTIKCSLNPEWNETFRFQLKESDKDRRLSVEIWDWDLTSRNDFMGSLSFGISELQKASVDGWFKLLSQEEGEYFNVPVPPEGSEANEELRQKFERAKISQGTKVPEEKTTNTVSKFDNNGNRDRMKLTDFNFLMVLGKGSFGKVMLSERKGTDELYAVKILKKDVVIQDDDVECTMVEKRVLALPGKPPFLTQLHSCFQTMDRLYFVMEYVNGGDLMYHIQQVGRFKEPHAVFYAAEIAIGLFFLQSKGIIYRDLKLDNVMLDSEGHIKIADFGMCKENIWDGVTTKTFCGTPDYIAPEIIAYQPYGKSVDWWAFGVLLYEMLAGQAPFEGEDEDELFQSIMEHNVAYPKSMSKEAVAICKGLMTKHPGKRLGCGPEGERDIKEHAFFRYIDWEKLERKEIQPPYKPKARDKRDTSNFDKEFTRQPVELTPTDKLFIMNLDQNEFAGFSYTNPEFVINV

Compound | isozyme selectivity (PKC isozymes; Martiny-Baron et al. (1993)) | isozyme selectivity (PKC isozymes; Toullec et al. (1991)) | pIC50 (protein kinase C alpha) | pIC50 (protein kinase C beta-1) | pIC50 (protein kinase C beta-2) | pIC50 (protein kinase C gamma) | pIC50 (protein kinase C delta) | pIC50 (protein kinase C epsilon) | pIC50 (protein kinase C zeta) | pIC50 (protein kinase C eta)
CN(C)CCCn1cc(C2=C(c3c[nH]c4ccccc34)C(=O)NC2=O)c2ccccc21 [3-[1-(3-dimethylaminopropyl)-indol-3-yl]-4-(1H-indol-3-yl)-1H-pyrrole-2,5-dione] | slight selectivity for isozymes, alpha and beta versus delta, epsilon, and zeta; also recorded: no differences in the selectivity between alpha and beta-1 isozymes | slight selectivity for the calcium dependent isozymes; also recorded: no isozyme selectivity between alpha, beta-1, beta-2, and gamma |  |  |  |  |  |  |  | 
CN1CCC(Cn2cc(C3=C(c4cn(C)c5ccccc45)C(=O)NC3=O)c3ccccc32)CC1 [Example 68, 3-(1-Methyl-indol-3-yl)-4-[1-(1-methyl-piperidin-4-ylmethylene)-indol-3-yl]-1H-pyrrole-2,5-dione] |  |  | 5.85 | 7.33 | 7.48 | 5.62 | 5.72 | 5.34 | 5.01 | 6.96
CCOC(=O)N1CCC(Cn2cc(C3=C(c4cn(C)c5ccccc45)C(=O)NC3=O)c3ccccc32)CC1 [Example 69, 3-[1-(1N-ethycarbomate-piperidin-4-yl-methylene)-indol-3-yl]-4-[1-methyindol-3-yl]-1H-pyrrole-2,5-dione] |  |  | 5.19 | 6.41 | 6.68 | 5.09 | 5.14 | < 4.00 | < 4.00 | 5.51
CC(=O)NCC1OC(OCCCCn2cc(C3=C(c4cn(C)c5ccccc45)C(=O)N(C(C)=O)C3=O)c3ccccc32)CC1OC(C)=O (stereo not shown) [Example 70] |  |  | 5.48 | 6.49 | 6.72 | 5.52 | 5.49 | 4.15 | 4.43 | 5.85
Cn1cc(C2=C(c3cn(C4CN(C(c5ccccc5)c5ccccc5)C4)c4ccccc34)C(=O)NC2=O)c2ccccc21 [Example 72, 3-[1-(Benzhydryl-azetidin-3-yl)-indol-3-yl)-4-(1-methyl-indol-3-yl)-1H-pyrrole-2,5-dione] |  |  | < 4.00 | 5.04 | 5.57 | 4.05 | < 4.00 | < 4.00 | 4.31 | 7.38

Reference: US5668152A, “Protein kinase C inhibitors” (priority 1995, dated 1997)
